Test results taken from US8119624B2, “Fused phenyl amido heterocyclic compounds” (Pfizer Inc., priority 2006, dated 2012).
pEC50: −log10 of the molar value.

Target: T1, Full-length glucokinase (beta cell isoform) (Homo sapiens, UniProt P35557)
T1 construct: Full-length glucokinase (beta cell isoform) was His-tagged at N-terminus; His tag (N); made in house
T1 sequence (P35557 1-465): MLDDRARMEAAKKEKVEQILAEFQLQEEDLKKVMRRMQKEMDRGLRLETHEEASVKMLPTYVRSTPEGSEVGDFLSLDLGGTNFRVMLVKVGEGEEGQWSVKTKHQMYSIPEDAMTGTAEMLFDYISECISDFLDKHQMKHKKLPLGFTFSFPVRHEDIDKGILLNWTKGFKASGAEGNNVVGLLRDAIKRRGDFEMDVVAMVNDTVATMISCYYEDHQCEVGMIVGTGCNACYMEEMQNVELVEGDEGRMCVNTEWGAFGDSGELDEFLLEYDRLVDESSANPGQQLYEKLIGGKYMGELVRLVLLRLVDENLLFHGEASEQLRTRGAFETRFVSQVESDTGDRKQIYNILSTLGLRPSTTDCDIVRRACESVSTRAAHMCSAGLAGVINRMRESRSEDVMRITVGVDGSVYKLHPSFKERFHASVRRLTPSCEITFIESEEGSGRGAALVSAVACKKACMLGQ
Assay: Glucokinase biochemical assay (PK/LDH-coupled, NADH depletion at 340 nm): % activation, EC50, % max activation
Conditions: 5 mM glucose; for activation at 10 µM: 10 uM compound, % Activation=(Va/Vo−1)×100, read-out: % Activation at 10 uM; for pEC50: GK activation, read-out: EC50; for Emax: fitted maximum activation, read-out: % Max Activation
Outline: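 N-terminally His-tagged full-length human beta-cell glucokinase, room temperature, 5 mM glucose, 1 mM ATP, PK/LDH-coupled with 0.7 mM NADH, 1% DMSO final. Initial velocity from the 200–900 s slope of A340 decline. % activation = (Va/Vo−1)×100, measured across compound concentrations.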

| SMILES | activation at 10 µM [%] | pEC50 | Emax [%] |
| --- | --- | --- | --- |
| CN(C)C(=O)c1ccc(Oc2cc(C(=O)Nc3cnn(C)n3)cc3c2CC(C)(C)O3)cc1F [Example 142, 4-(4-Dimethylcarbamoyl-3-fluoro-phenoxy)-2,2-dimethyl-2,3-dihydro-benzofuran-6-carboxylic acid (2-methyl-2H-[1,2,3]triazol-4-yl)-amide] | 145 | 7.28 | 130 |
| CN(C)C(=O)c1ccc(Oc2cc(C(=O)Nc3ccc(C(N)=O)cn3)cc3c2CC(C)(C)O3)cc1F [Example 146, 6-{[4-(4-Dimethylcarbamoyl-3-fluoro-phenoxy)-2,2-dimethyl-2,3-dihydro-benzofuran-6-carbonyl]-amino}-nicotinamide] | 25.1 | – | – |
| CN(C)C(=O)c1ccc(Oc2cc(C(=O)Nc3ccc(CNC4CC4)cn3)cc3c2CC(C)(C)O3)cc1F [Example 147, 4-(4-Dimethylcarbamoyl-3-fluoro-phenoxy)-2,2-dimethyl-2,3-dihydro-benzofuran-6-carboxylic acid (5-cyclopropylaminomethyl-pyridin-2-yl)-amide] | 35 | – | – |
| Cc1ccc(NC(=O)c2cc(Oc3ccc(C(=O)N(C)C)c(F)c3)c3c(c2)OC(C)(C)C3)nc1 [Example 148, 4-(4-Dimethylcarbamoyl-3-fluoro-phenoxy)-2,2-dimethyl-2,3-dihydro-benzofuran-6-carboxylic acid (5-methyl-pyridin-2-yl)-amide] | 49.5 | 7.37 | 53 |
| Cc1ccc(NC(=O)c2cc(Oc3ccc(C(=O)N(C)C)cc3)c3c(c2)OC(C)(C)C3)nc1 [Example 150, 4-(4-Dimethylcarbamoyl-phenoxy)-2,2-dimethyl-2,3-dihydro-benzofuran-6-carboxylic acid (5-methyl-pyridin-2-yl)-amide] | 39.1 | 6.96 | 55 |
| CN(C)C(=O)c1ccc(Oc2cc(C(=O)Nc3cc[nH]n3)cc3c2CC(C)(C)O3)cc1 [Example 152, 4-(4-Dimethylcarbamoyl-phenoxy)-2,2-dimethyl-2,3-dihydro-benzofuran-6-carboxylic acid (1H-pyrazol-3-yl)-amide] | 90.7 | 6.07 | 98 |
| Cc1cc(NC(=O)c2cc(Oc3ccc(C(=O)N(C)C)cc3)c3c(c2)OC(C)(C)C3)no1 [Example 154, 4-(4-Dimethylcarbamoyl-phenoxy)-2,2-dimethyl-2,3-dihydro-benzofuran-6-carboxylic acid (5-methyl-isoxazol-3-yl)-amide] | 36.3 | 5.40 | 54 |
| CN(C)C(=O)c1ccc(Oc2cc(C(=O)Nc3ccncn3)cc3c2CC(C)(C)O3)cc1 [Example 156, 4-(4-Dimethylcarbamoyl-phenoxy)-2,2-dimethyl-2,3-dihydro-benzofuran-6-carboxylic acid pyrimidin-4-ylamide] | 52 | 6.34 | 49 |
| CN(C)C(=O)c1ccc(Oc2cc(C(=O)Nc3ccccn3)cc3c2CC(C)(C)O3)cc1 [Example 157, 4-(4-Dimethylcarbamoyl-phenoxy)-2,2-dimethyl-2,3-dihydro-benzofuran-6-carboxylic acid pyridin-2-ylamide] | 69.2 | 6.72 | 71 |
| CN(C)C(=O)c1ccc(Oc2cc(C(=O)Nc3ccon3)cc3c2CC(C)(C)O3)cc1 [Example 158, 4-(4-Dimethylcarbamoyl-phenoxy)-2,2-dimethyl-2,3-dihydro-benzofuran-6-carboxylic acid isoxazol-3-ylamide] | 115 | 6.33 | 106 |
| Cn1ncc(NC(=O)c2cc(Oc3ccc(C(=O)N4CCC4)c(F)c3)c3c(c2)OC(C)(C)C3)n1 [Example 159, 4-[4-(Azetidine-1-carbonyl)-3-fluoro-phenoxy]-2,2-dimethyl-2,3-dihydro-benzofuran-6-carboxylic acid (2-methyl-2H-[1,2,3]triazol-4-yl)-amide] | 243 | 6.82 | 260 |
| CN(C)C(=O)c1ccc(Oc2cc(C(=O)Nc3ccn(C)n3)cc3c2CC(C)(C)O3)cn1 [Example 161, 5-[2,2-Dimethyl-6-(1-methyl-1H-pyrazol-3-ylcarbamoyl)-2,3-dihydro-benzofuran-4-yloxy]-pyridine-2-carboxylic acid dimethylamide] | 191 | 6.76 | 143 |
| CN(C)C(=O)c1ccc(Oc2cc(C(=O)Nc3ccn(C)n3)cc3c2CC(C)(C)O3)nc1 [Example 162, 6-[2,2-Dimethyl-6-(1-methyl-1H-pyrazol-3-ylcarbamoyl)-2,3-dihydro-benzofuran-4-yloxy]-N,N-dimethyl-nicotinamide] | 105 | 5.80 | 135 |
| CN(C)C(=O)c1ncc(Oc2cc(C(=O)Nc3ccn(C)n3)cc3c2CC(C)(C)O3)cn1 [Example 164, 5-[2,2-Dimethyl-6-(1-methyl-1H-pyrazol-3-ylcarbamoyl)-2,3-dihydro-benzofuran-4-yloxy]-pyrimidine-2-carboxylic acid dimethylamide] | 112 | 6.60 | 102 |

Continued, values first:

| activation at 10 µM [%] | pEC50 | Emax [%] | SMILES |
| --- | --- | --- | --- |
| 173 | 6.96 | 216 | Cn1ccc(NC(=O)c2cc(Oc3ccc(S(=O)(=O)C4CC4)c(F)c3)c3c(c2)OC(C)(C)C3)n1 [Example 141, 4-(4-Cyclopropanesulfonyl-3-fluoro-phenoxy)-2,2-dimethyl-2,3-dihydro-benzofuran-6-carboxylic acid (1-methyl-1H-pyrazol-3-yl)-amide] |
| 47.8 | 6.75 | 50 | Cc1cc(NC(=O)c2cc(Oc3ccc(C(=O)N(C)C)c(F)c3)c3c(c2)OC(C)(C)C3)no1 [Example 143, 4-(4-Dimethylcarbamoyl-3-fluoro-phenoxy)-2,2-dimethyl-2,3-dihydro-benzofuran-6-carboxylic acid (5-methyl-isoxazol-3-yl)-amide] |
| 103 | 6.57 | 100 | CN(C)C(=O)c1ccc(Oc2cc(C(=O)Nc3ccon3)cc3c2CC(C)(C)O3)cc1F [Example 144, 4-(4-Dimethylcarbamoyl-3-fluoro-phenoxy)-2,2-dimethyl-2,3-dihydro-benzofuran-6-carboxylic acid isoxazol-3-ylamide] |
| 47.2 | 7.14 | 46.5 | CN(C)C(=O)c1ccc(Oc2cc(C(=O)Nc3ccc(CO)cn3)cc3c2CC(C)(C)O3)cc1F [Example 145, 4-(4-Dimethylcarbamoyl-3-fluoro-phenoxy)-2,2-dimethyl-2,3-dihydro-benzofuran-6-carboxylic acid (5-hydroxymethyl-pyridin-2-yl)-amide] |
| 105 | 6.92 | 104 | CN(C)C(=O)c1ccc(Oc2cc(C(=O)Nc3ccn(C)n3)cc3c2CC(C)(C)O3)cc1 [Example 149, 4-(4-Dimethylcarbamoyl-phenoxy)-2,2-dimethyl-2,3-dihydro-benzofuran-6-carboxylic acid (1-methyl-1H-pyrazol-3-yl)-amide] |
| 98.1 | 6.33 | 97 | CN(C)C(=O)c1ccc(Oc2cc(C(=O)Nc3cnccn3)cc3c2CC(C)(C)O3)cc1 [Example 151, 4-(4-Dimethylcarbamoyl-phenoxy)-2,2-dimethyl-2,3-dihydro-benzofuran-6-carboxylic acid pyrazin-2-ylamide] |
| 168 | 6.82 | 161 | CN(C)C(=O)c1ccc(Oc2cc(C(=O)Nc3cnn(C)n3)cc3c2CC(C)(C)O3)cc1 [Example 153, 4-(4-Dimethylcarbamoyl-phenoxy)-2,2-dimethyl-2,3-dihydro-benzofuran-6-carboxylic acid (2-methyl-2H-[1,2,3]triazol-4-yl)-amide] |
| 38.4 | 7.05 | 43 | CN(C)C(=O)c1ccc(Oc2cc(C(=O)Nc3ccc(CO)cn3)cc3c2CC(C)(C)O3)cc1 [Example 155, 4-(4-Dimethylcarbamoyl-phenoxy)-2,2-dimethyl-2,3-dihydro-benzofuran-6-carboxylic acid (5-hydroxymethyl-pyridin-2-yl)-amide] |
| 298 | 6.89 | 250 | Cn1ncc(NC(=O)c2cc(Oc3ccc(C(=O)N4CCC4)cc3)c3c(c2)OC(C)(C)C3)n1 [Example 160, 4-[4-(Azetidine-1-carbonyl)-phenoxy]-2,2-dimethyl-2,3-dihydro-benzofuran-6-carboxylic acid (2-methyl-2H-[1,2,3]triazol-4-yl)-amide] |
| 118 | 6.36 | 137 | Cn1ccc(NC(=O)c2cc(Oc3ccc(C(=O)Nc4ccn(C)n4)nc3)c3c(c2)OC(C)(C)C3)n1 [Example 163, 5-[2,2-Dimethyl-6-(1-methyl-1H-pyrazol-3-ylcarbamoyl)-2,3-dihydro-benzofuran-4-yloxy]-pyridine-2-carboxylic acid (1-methyl-1H-pyrazol-3-yl)-amide] |
